Experimental data taken from PMC12715984, “Co‐cultivation and Medium Optimization: A Strategy for Discovering Fungal‐derived Protease Inhibitors” (Chemistry & Biodiversity, 2025).
Values after ≈ are worked out from the molar mass of the structure shown. Where two headings read alike, the source gives them in different places. Each block holds one compound with its values, some of them ahead of it.

Tests used:
[1] = test system: T. cruzi Tulahuen lacZ strain; assay: Anti-T. cruzi activity, intracellular amastigotes in HFF-1 cells, beta-galactosidase/CPRG readout; conditions: Trypanosoma cruzi, HFF-1, 120 h
[2] = test system: Candida albicans (ATCC 64548); assay: Antifungal broth microdilution (CLSI M27A3), MIC; format: cell-based; conditions: for MIC: Candida albicans, ATCC64548, read-out: minimum inhibitory concentration (MIC)
Description: The antifungal activity of compounds 1–5, 7–11 was evaluated using the broth microdilution method in 96‐well plates, following the Clinical Laboratory Standard Institute (CLSI) guidelines M27A3 [35, 36], with minor modifications. The assay was performed against Candida auris (CDC B11903), Candida parapsilosis (ATCC 22019), and Candida albicans (ATCC 64548), and based on the determination of the minimum inhibitory concentration (MIC).
Each compound was initially dissolved in DMSO at a stock concentration 100 times higher than the highest concentration tested. Working solutions were subsequently prepared in RPMI 1640 culture medium (pH 7.0), supplemented with L‐glutamine, devoid of bicarbonate, and containing phenol red as a pH indicator, to yield a 2 × concentration. Serial two‐fold dilutions were made to obtain final concentrations ranging from 3.125 to 200.00 µg/mL. Fluconazole was used as a reference antifungal control.
Aliquots of 100 µL of each 2 × test solution were dispensed into the wells of the microdilution plates. Fungal suspensions were prepared in autoclaved distilled water and adjusted to a final concentration of 5.0 × 10^3 conidia or blastoconidia/mL. After inoculation, plates were incubated at 37°C. Fungal growth was visually assessed after 24 and 48 h. […] All assays were performed in duplicate.

papain [3] = target: T1, papain (Carica papaya, UniProt P00784); assay: Papain inhibition, fluorometric Z-Phe-Arg-MCA assay; format: biochemical; conditions: for inhibition at 100 µM: read-out: % inhibition (100 µM)
T1 construct: purchased
T1 sequence (P00784 134-345): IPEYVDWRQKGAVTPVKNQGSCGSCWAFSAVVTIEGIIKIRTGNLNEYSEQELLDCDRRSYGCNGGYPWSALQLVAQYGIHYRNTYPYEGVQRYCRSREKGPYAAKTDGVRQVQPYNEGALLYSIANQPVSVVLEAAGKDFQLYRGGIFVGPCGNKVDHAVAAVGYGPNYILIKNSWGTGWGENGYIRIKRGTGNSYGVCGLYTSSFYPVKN
Description: Compounds 1, 2, 4, and 7–11 were tested against papain inhibitory activity. Papain served as the model cysteine protease in the protease inhibition assay. Enzyme activity was assessed via real‐time fluorometric monitoring of 7‐amino‐4‐methylcoumarin (MCA) release during substrate cleavage. Hydrolysis of the fluorogenic substrate Z‐Phe‐Arg‐MCA (ZFR‐MCA) was tracked in black 96‐well plates using a spectrofluorometer (λex/λem = 380/460 nm) (SpectraMax M3, Molecular Devices).
Each reaction well contained 5 µL papain (80 nM), 2 µL dithiothreitol (DTT, 500 mM), and 158 µL sodium acetate buffer (100 mM, pH 5.5, 5 mM EDTA). After a 5‐minute pre‐incubation at 27°C, 5 µL of test compound (dissolved in DMSO) or DMSO (negative control) was added. In the initial screening, all compounds were tested at a fixed concentration of 100 µM to evaluate their inhibitory potential. Following a second 5‐minute incubation at 27°C, 30 µL ZFR‐MCA (0.6 mM) was added, and fluorescence was recorded every 300 s using a SpectraMax M3 microplate reader (Molecular Devices). This concentration guided subsequent serial dilutions to determine the IC50 (half‐maximal inhibitory concentration).
For this, a serial dilution series was prepared from the active compounds, and the assay was conducted as previously described. Final assay conditions (200 µL/well) yielded effective compound concentrations of 100 µM to 1.56 µM for IC50 determination. Papain's molar concentration was validated via titration with the irreversible inhibitor E‐64 (positive control) from 1.0 µM to 31.25 nM. All experiments included triplicate measurements across two independent trials (total n = 6).

Cytotoxicity assay, MTS = format: cell-based; conditions: human, HFF-1, 120-hour incubation, maximum tested 64 µM
Description: Cytotoxicity assays: HFF‐1 fibroblasts (provided by Rio de Janeiro Cell Bank (BCRJ)) were seeded at a density of 2 × 10^3 cells per well in 100 µL of DMEM and incubated overnight at 37°C in a 5% CO2 atmosphere. Subsequently, test compounds were added in serial dilutions, followed by a 120‐hour incubation period under the same conditions. Each plate included negative controls and doxorubicin as a positive control. After incubation, 15 µL of MTS reagent (CellTiter96) was added to each well, and plates were incubated for an additional 4 h. Absorbance was measured at 490 nm using a microplate reader. The percentage of growth inhibition was calculated relative to the absorbance of the negative control wells.

papain [4] = target: T1, papain; design: method as in earlier work; conditions: at 200 µM; cited from earlier work
bacteria = test system: bacteria; design: method as in PMID 21497643; conditions: cited from earlier work
plant-parasitic nematode = test system: plant-parasitic nematode; design: method as in PMID 27990770; conditions: cited from earlier work
Cryphonectria parasitica = test system: Cryphonectria parasitica; design: method as in PMID 11052720; conditions: against Cryphonectria parasitica; cited from earlier work
papain [5] = target: T1, papain; design: method as in PMID 32189177; conditions: at a concentration of 50 µM, cited from earlier work

Compound: O=C(Cn1ccnc1[N+](=O)[O-])NCc1ccccc1 [Benznidazole, reference compound]
- IC50 [1]: 2.24 ± 0.9 µM

Compound: CCCCc1ccc(C(=O)[O][Mg][O]C(=O)c2ccc(CCCC)cn2)nc1 [Compound 2, magnesium complex of fusaric acid]
- MIC [2]: 50 µg/mL
- IC50 (papain [3]; papain): 17.5 µM
- inhibition at 100 µM (papain [3]): 94 ± 7.9%
- CC50 at 120 h (Cytotoxicity assay, MTS): > 64 µM
- IC50 [1]: 12.2 ± 0.4 µM

Compound: CSC12CC3=CC=CC(OC(C)=O)C3N1C(=O)C1(SC)CC3=CC=CC(OC(C)=O)C3N1C2=O (centres unmarked) [Compound 4, haematocin]
- MIC [2]: 100 µg/mL (≈ 199 µM)
- IC50 (papain [3]): 47.7 µM
- inhibition at 100 µM (papain [3]): 76.6%
- CC50 at 120 h (Cytotoxicity assay, MTS): > 64 µM
- IC50 [1]: 13.3 ± 1 µM

Compound: CCCCc1ccc(C(=O)O)nc1 [Compound 5, fusaric acid]
- CC50 at 120 h (Cytotoxicity assay, MTS): > 64 µM
- papain inhibition (papain [4]): 58%
- IC50 [1]: 20.9 ± 0.3 µM

Compound: C[C@@H](O)CCc1ccc(C(=O)O)nc1 [Compound 7, (R)‐fusarinolic acid]
- CC50 at 120 h (Cytotoxicity assay, MTS; HFF-1 fibroblasts): > 64 µM
- antibacterial activity (bacteria): no significant activity
- plant-parasitic nematode activity (plant-parasitic nematode): no significant activity
- IC50 [1]: 60.07 ± 0.6 µM

Compound: CC(C)=CCCC(C)(O)C1CCC(C)(O)C1C (centres unmarked) [Compound 8, cyclonerodiol]
- inhibition at 100 µM (papain [3]; papain, compound at 100 µM): 89%
- IC50 (papain [3]; papain, read-out: IC50): 25.9 µM
- CC50 at 120 h (Cytotoxicity assay, MTS; HFF-1 fibroblasts): > 64 µM
- antifungal activity (Cryphonectria parasitica): weak antifungal activity
- IC50 [1]: 22.7 ± 1.1 µM

- IC50 (papain [3]; papain, positive control, read-out: IC50): 0.0072 µM
Compound: CC(C)C[C@H](NC(=O)[C@H]1O[C@@H]1C(=O)O)C(=O)NCCCCN=C(N)N [E‐64, reference compound]

Compound: CC(C)C[C@@H]1NC(=O)[C@@H]2CCCN2C1=O [cyclo(L‐Leu‐L‐Pro) diketopiperazine]
- papain inhibition (papain [5]; 50 µM): 3%

Compound: CC(C)[C@@H]1NC(=O)[C@@H]2CCCN2C1=O [cyclo(L‐Val‐L‐Pro)]
- papain inhibition (papain [5]): 10%

Compound: Iron complex of fusaric acid [Compound 1]
- minimum inhibitory concentration (MIC) ([2]; C. albicans, tested 3.125 to 200.00 µg/mL): 100 µg/mL
- % inhibition (100 µM) (papain [3]; papain, compound at 100 µM, 100 µM): 88.6%
- IC50 (papain [3]; papain, read-out: IC50): 14.1 µM
